± gives the expanded uncertainty stated by the source.
Experiment: mn = molality of the nth substance listed, in mol/kg
Details: 101 kPa, Liquid; for speed of sound: Sing-around technique in a fixed-path interferometer

CC(N)C(=O)O (stereo not drawn) [DL-2-aminopropanoic acid] + O
Details | speed of sound [m/s] | viscosity [mPa·s]
288.15 K, m1 = 0.04982 | – | 1.153 ± 0.021
288.15 K, m1 = 0.07777 | 1471.3 ± 1.6 | –
288.15 K, m1 = 0.1109 | – | 1.172 ± 0.021
288.15 K, m1 = 0.1126 | 1473.8 ± 1.6 | –
288.15 K, m1 = 0.2059 | 1480.4 ± 1.6 | –
288.15 K, m1 = 0.2183 | – | 1.204 ± 0.022
288.15 K, m1 = 0.2612 | – | 1.217 ± 0.022
288.15 K, m1 = 0.3107 | – | 1.231 ± 0.022
288.15 K, m1 = 0.3139 | 1488.1 ± 1.6 | –
288.15 K, m1 = 0.3825 | 1493 ± 1.6 | –
288.15 K, m1 = 0.4409 | 1497.2 ± 1.6 | –
288.15 K, m1 = 0.4536 | – | 1.272 ± 0.023
288.15 K, m1 = 0.5099 | – | 1.29 ± 0.023
298.15 K, m1 = 0.07777 | 1501.8 ± 1.6 | –
298.15 K, m1 = 0.07866 | – | 0.9082 ± 0.017
298.15 K, m1 = 0.1126 | 1504.1 ± 1.6 | –
298.15 K, m1 = 0.1934 | – | 0.9331 ± 0.017
298.15 K, m1 = 0.2059 | 1510.4 ± 1.6 | –
298.15 K, m1 = 0.3139 | 1517.7 ± 1.6 | –
298.15 K, m1 = 0.3188 | – | 0.9584 ± 0.018
298.15 K, m1 = 0.3825 | 1522.3 ± 1.6 | –
298.15 K, m1 = 0.4275 | – | 0.9832 ± 0.018
298.15 K, m1 = 0.4409 | 1526.3 ± 1.6 | –
298.15 K, m1 = 0.5485 | – | 1.013 ± 0.019
298.15 K, m1 = 0.593 | – | 1.018 ± 0.019
298.15 K, m1 = 0.7354 | – | 1.057 ± 0.019
298.15 K, m1 = 0.8417 | – | 1.072 ± 0.02
298.15 K, m1 = 0.9533 | – | 1.089 ± 0.02
308.15 K, m1 = 0.04619 | – | 0.7279 ± 0.014
308.15 K, m1 = 0.07777 | 1524.6 ± 1.6 | –
308.15 K, m1 = 0.107 | – | 0.7391 ± 0.014
308.15 K, m1 = 0.1126 | 1526.7 ± 1.6 | –
308.15 K, m1 = 0.2059 | 1532.4 ± 1.6 | –
308.15 K, m1 = 0.2145 | – | 0.7583 ± 0.015
308.15 K, m1 = 0.2578 | – | 0.7656 ± 0.015
308.15 K, m1 = 0.3071 | – | 0.7745 ± 0.015
308.15 K, m1 = 0.3139 | 1539.1 ± 1.6 | –
308.15 K, m1 = 0.3489 | – | 0.7816 ± 0.015
308.15 K, m1 = 0.3825 | 1543.4 ± 1.6 | –
308.15 K, m1 = 0.4409 | 1547 ± 1.6 | –
308.15 K, m1 = 0.4983 | – | 0.8076 ± 0.015
318.15 K, m1 = 0.04529 | – | 0.6029 ± 0.012
318.15 K, m1 = 0.07777 | 1540.9 ± 1.6 | –
318.15 K, m1 = 0.1064 | – | 0.6119 ± 0.012
318.15 K, m1 = 0.1126 | 1542.8 ± 1.6 | –
318.15 K, m1 = 0.2059 | 1548.2 ± 1.6 | –
318.15 K, m1 = 0.2141 | – | 0.6275 ± 0.013
318.15 K, m1 = 0.2564 | – | 0.6331 ± 0.013
318.15 K, m1 = 0.3064 | – | 0.6409 ± 0.013
318.15 K, m1 = 0.3139 | 1554.4 ± 1.6 | –
318.15 K, m1 = 0.3492 | – | 0.647 ± 0.013
318.15 K, m1 = 0.3825 | 1558.4 ± 1.6 | –
318.15 K, m1 = 0.4205 | – | 0.6561 ± 0.013
318.15 K, m1 = 0.4409 | 1561.8 ± 1.6 | –
